Measurements as given in patent US11661398B2, “Cellular transport system for transferring a sulfonic acid construct carrying a cargo into the cytoplasm of a cell” (Scientist of Fortune, S.A., priority 2017, dated 2023).
“Also recorded” adds a separate entry of the source.

Assays:
PnGGT* = target: T1, PnGGT* (Pseudomonas nitroreducens, UniProt E0D5C2, D405N); assay: Sulfobutanoyl-L-leucine hydrolysis kinetics coupled to branched-chain amino acid kit; format: biochemical; details: 50 mM Tris/HCl (pH 7.0)
T1 sequence (E0D5C2 25-556 D405N limits assumed): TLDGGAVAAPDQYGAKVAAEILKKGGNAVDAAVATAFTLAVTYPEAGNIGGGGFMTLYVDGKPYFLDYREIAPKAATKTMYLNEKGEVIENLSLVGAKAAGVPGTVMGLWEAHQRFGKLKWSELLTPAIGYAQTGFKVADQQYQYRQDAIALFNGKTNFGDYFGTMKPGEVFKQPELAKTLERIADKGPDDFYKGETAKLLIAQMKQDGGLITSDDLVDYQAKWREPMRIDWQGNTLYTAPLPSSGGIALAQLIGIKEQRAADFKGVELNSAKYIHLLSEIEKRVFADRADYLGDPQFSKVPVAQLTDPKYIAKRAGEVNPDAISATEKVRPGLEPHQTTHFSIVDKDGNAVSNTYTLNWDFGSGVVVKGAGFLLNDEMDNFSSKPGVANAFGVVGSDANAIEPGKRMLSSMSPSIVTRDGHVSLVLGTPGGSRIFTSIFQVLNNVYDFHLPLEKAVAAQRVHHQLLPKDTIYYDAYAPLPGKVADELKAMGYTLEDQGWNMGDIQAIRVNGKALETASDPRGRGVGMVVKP
Method: (§1) FIG. 32. […] Due to the unknown composition of the kit, absolute quantification of leucine was not possible and the results relating to reaction rates are plotted as changes in absorbance over time. […] (b) Kinetics of PnGGT* P505T were determined with the same substrate concentrations and buffer as for PnGGT*. […] Fitting of the kinetic data was performed with SigmaPlot v.12.2. Dots represent the average of three independent measurements with standard deviations shown as error bars.
(§2) For that, 50 μL of the BCAA reaction mix containing 46 μL BCAA assay buffer, 2 μL BCAA enzyme mix and 2 μL WST substrate mix were pre-incubated with 35 μL BCAA assay buffer and 5 μL purified PnGGT* (final concentration approximately 0.05 mg mL-1) at 37° C. […] The reaction rate of PnGGT* variants was determined as the specific difference in absorption over time (ΔA (450 nm) per minute per mg of purified protein).

PnGGT* D385Y = assay: as above; format: biochemical, Pseudomonas nitroreducens; details: 50 mM Tris/HCl (pH 7.0), 10-1000 μM substrate
Method: as §1, §2

PnGGT* P505T = assay: as above; format: biochemical, Pseudomonas nitroreducens; details: 50 mM Tris/HCl (pH 7.0)
Method: as §1, §2

BW25113 ΔleuB (TK080) = assay: Growth on different sulfur sources; format: cell-based, E. coli; details: 1 mM sulfur source, minimal medium, 0.5% glucose, 0.4 mM leucine
Method: FIG. 21: Growth of E. coli on sulfonates. Strains TK080 (a; BW25113 ΔleuB) and TK082 (b; BW25113 ΔleuB ΔssuEADCB ΔtauD) were grown in MS minimal medium supplemented with 0.5% glucose, 0.4 mM L-leucine, 1 mM MgCl2 and 1 mM of a sulfur source. TK080 was able to use the majority of the tested sulfur sources with a similar efficiency as sulfate. […] Dots represent the average of three independent measurements with standard deviations shown as error bars.
(§3) For the experiments relating to the sulfonate based synthetic transport system, unless stated otherwise, growth experiments in selective medium were carried out in sulfur free MS minimal medium (4 mM citric acid, 1 mM MgCl2, 20 mM NH4Cl, 50 mM KH2PO4 and 1×NTA mix (10 μM nitrilotriacetic acid, 3 μM CaCl2, 3 μM FeCl3, 1 μM MnCl2, 0.3 μM ZnCl2, 0.3 μM H3B3, 0.3 μM CrC3, 0.3 μM COCl2, 0.3 μM CuCl2, 0.3 μM Ni2C, 0.3 μM Na2MoO4, 0.3 μM Na2SeO3)) supplemented with 0.5% glucose. MgSO4 (1 mM), MgCl2 (1 mM), L-leucine (0.4 mM), IPTG (0.5 mM), aTc (100 ng mL-1), nicotinic acid (various concentrations), 3-picolylamine (various concentrations) and sulfonates (various concentrations) as indicated in the text. […] Synthesis schemes for sulfobutanoyl-p-nitroanilide and other sulfonates are given below.
The sulfonate transporters SsuABC and TauABC transport a wide variety of sulfonate compounds (Eichhorn et al., 2000) and can thus be exploited for the present synthetic transport system. As such, the uptake and utilization of sulfobutanoyl-L-leucine was assessed. The leucine auxotrophic strain BW25113 ΔleuB was tested for growth in minimal medium supplemented with 0.5% glucose, 0.4 mM leucine, 0.4 mM isoleucine and 1 mM of a sulfur-containing compound as the sole sulfur source.

BW25113 ΔleuB = assay: Intracellular release of leucine from sulfobutanoyl-L-leucine, growth on plates; format: cell-based, E. coli; details: 2 mM compound, 0.5 mM taurine
Method: as §3
It was then tested if sulfobutanoyl-L-leucine can also be hydrolyzed intracellularly by GGT*. Strains BW25113 ΔleuB or BW25113 ΔleuB ΔssuD were transformed either with the empty vector pACT3 or the expression plasmids pACT3/EcGGT_ΔN24_D433N and pACT3/PnGGT_ΔN24_D405N. […] Taurine is taken up exclusively via TauABC and solely desulfonated by TauD. Addition of an excess of taurine should therefore not lead to competition with sulfobutanoyl-L-leucine for the SsuABC transporter and prevent TauD from using sulfobutanoyl-L-leucine as substrate, ensuring that the majority of sulfobutanoyl-L-leucine is hydroluzed by GGT*.

TK082[pSsuABC] = assay: Growth of leucine auxotrophic strain in liquid medium; format: cell-based, E. coli; details: liquid MS minimal medium, 0.25 mM compound, pACT3 versus pPnGGT*
PnGGT ΔN24 [1] = target: T2, PnGGT ΔN24 (Pseudomonas nitroreducens, UniProt E0D5C2); assay: Kinetic measurements with purified PnGGT ΔN24; format: biochemical; details: purified enzyme, 50 mM Tris-HCl (pH 9.0)
Method: (§4) For the experiments relating to the sulfonate based synthetic transport system, purification of PnGGT ΔN24 and PnGGT ΔN24 D405N containing an N-terminal 6×His-tag was performed according to previous reports (Van Dyke et al., 1992) using Ni-NTA Superflow (Qiagen, Hilden, Germany). For kinetic studies, PnGGT variants were purified with the aid of the 6×His-tag located at the N-terminal end of the large subunit following the same procedure. To exchange the buffer, purified proteins were dialyzed against 50 mM Tris/HCl (pH 7.0).
(§5) To determine the kinetic parameters of PnGGT ΔN24 and PnGGT ΔN24 D405N the purified enzymes were preincubated in 50 mM Tris-HCl (pH 9.0). To start the reaction, varying concentrations of the substrates L-glutamic acid γ-(3-carboxy-4-nitroanilide) or sulfobutanoyl-p-nitroanilide were added to the mixtures. The results were evaluated using GraphPad Prism (GraphPad Software, La Jolla, Calif., USA).

PnGGT ΔN24 D405N [2] = target: T3, PnGGT ΔN24 D405N (Pseudomonas nitroreducens, UniProt E0D5C2, D405N); assay: Kinetic measurements with purified PnGGT ΔN24 D405N; format: biochemical; details: purified enzyme, 50 mM Tris-HCl (pH 9.0)
T3 sequence (E0D5C2 with tags, fused parts or gaps D405N): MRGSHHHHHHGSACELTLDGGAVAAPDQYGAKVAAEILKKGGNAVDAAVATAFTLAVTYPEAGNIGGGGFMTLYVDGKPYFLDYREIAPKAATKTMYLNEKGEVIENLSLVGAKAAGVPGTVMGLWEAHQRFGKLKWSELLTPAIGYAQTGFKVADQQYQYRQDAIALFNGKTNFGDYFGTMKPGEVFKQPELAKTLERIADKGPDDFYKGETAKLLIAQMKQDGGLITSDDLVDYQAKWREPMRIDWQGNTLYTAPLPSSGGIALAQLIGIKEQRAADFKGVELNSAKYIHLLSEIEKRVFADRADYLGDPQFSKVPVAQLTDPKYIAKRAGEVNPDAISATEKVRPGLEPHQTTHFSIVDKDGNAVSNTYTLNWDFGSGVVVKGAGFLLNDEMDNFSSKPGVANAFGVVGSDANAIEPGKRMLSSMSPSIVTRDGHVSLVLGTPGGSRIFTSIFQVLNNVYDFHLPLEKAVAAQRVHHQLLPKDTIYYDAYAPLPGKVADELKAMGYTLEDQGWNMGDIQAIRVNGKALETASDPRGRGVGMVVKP
Method: as §4, §5

EcGGT ΔN24 = target: T4, EcGGT ΔN24 (Escherichia coli, UniProt P18956); assay: Colorimetric GGT assay in whole cell lysates; format: biochemical, E. coli; details: whole cell lysate, 4 mM substrate, 50 mM Tris-HCl (pH 9.0), 410 nm
T4 construct: made in house; host or cells: E. coli (pACT3 plasmid, IPTG induction)
Source text: (§6) To test for the desired activity a colorimetric enzyme assay was chosen and the substrate sulfobutanoyl-p-nitroanilide was synthesized for this purpose. Hydrolysis of this colorless substrate by a GGT variant into sulfobutanoic acid and the yellow dye 4-nitroaniline can be quantified photometrically at 410 nm. For that, cytoplasmic GGT variants containing an N-terminal 6×His-tag were first expressed from E. coli (EcGGT ΔN24) and Pseudomonas nitroreducens (PnGGT ΔN24), as well as EcGGT ΔN24 D433N and the corresponding mutant variant PnGGT ΔN24 D405N. Position D405 of PnGGT was identified to fulfill the same function as position D433 of EcGGT by sequence alignment and homology modeling between EcGGT and PnGGT. Then the ability of whole cell lysates containing the respective enzymes was tested to hydrolyze L-glutamic acid γ-(3-carboxy-4-nitroanilide) or sulfobutanoyl-p-nitroanilide.

EcGGT ΔN24 D433N = target: T5, EcGGT ΔN24 D433N (Escherichia coli, UniProt P18956, D433N); assay: Colorimetric GGT assay in whole cell lysates; format: biochemical, E. coli; details: whole cell lysate, 4 mM substrate, 50 mM Tris-HCl (pH 9.0), 410 nm
T5 construct: made in house; host or cells: E. coli (pACT3 plasmid); assayed in whole cell lysate
Source text: as §6

PnGGT ΔN24 [3] = target: T2, PnGGT ΔN24; assay: Colorimetric GGT assay in whole cell lysates; format: biochemical; details: whole cell lysate, 4 mM substrate, 50 mM Tris-HCl (pH 9.0), 410 nm
Source text: as §6

PnGGT ΔN24 D405N [4] = target: T3, PnGGT ΔN24 D405N; assay: Colorimetric GGT assay in whole cell lysates / cell free extracts; format: biochemical; details: cell free extracts of strain TK018, 2 mM substrate (FIG. 22a)
Source text: FIG. 22: Identification of GGT* activity and refactoring of the ssuABC operon. […] The release of 4-nitroaniline was quantified by measuring the absorption at 410 nm. (b) Plasmid map of the three-dimensional RBS-library for refactoring the ssuABC operon using 144 RBS variants per gene. RBS library sequences are underlined. Arrows point towards the final RBS sequences observed in plasmid pSsuABC. […] (e) Growth of strain TK088[pSsuABC]transformed with the empty vector pACT3 (black circles) or plasmid pPnGGT* (white circles) in liquid MS minimal medium supplemented with 0.5% glucose, 1 mM MgSO4, 0.4 mM L-leucine, 0.5 mM IPTG, 100 ng ml^−1 aTc and 0.5 mM sulfobutanoyl-L-histidine. Bars and dots from panels (a), (d) and (e) represent the average of three independent measurements with standard deviations shown as error bars.
To test for the desired activity a colorimetric enzyme assay was chosen and the substrate sulfobutanoyl-p-nitroanilide was synthesized for this purpose. Hydrolysis of this colorless substrate by a GGT variant into sulfobutanoic acid and the yellow dye 4-nitroaniline can be quantified photometrically at 410 nm. For that, cytoplasmic GGT variants containing an N-terminal 6×His-tag were first expressed from E. coli (EcGGT ΔN24) and Pseudomonas nitroreducens (PnGGT ΔN24), as well as EcGGT ΔN24 D433N and the corresponding mutant variant PnGGT ΔN24 D405N. […]

Row | SMILES | K value relative to K value with sulfobutanoyl-p-nitroanilide (PnGGT*) | improvement of Vmax over PnGGT* (PnGGT* D385Y) [fold] | increase in Vmax in comparison to PnGGT* (PnGGT* P505T) [%] | reduction in KM in comparison to PnGGT* (PnGGT* P505T) [%] | growth with compound as sole sulfur source (BW25113 ΔleuB (TK080)) | growth with compound as leucine source (BW25113 ΔleuB; expressing EcGGT ΔN24 D433N) | growth with compound as leucine source (BW25113 ΔleuB; expressing PnGGT ΔN24 D405N) | growth with compound as leucine source (BW25113 ΔleuB; pACT3 empty vector control) | growth with compound as sole leucine source (TK082[pSsuABC]) | Km (PnGGT ΔN24 [1]) [mM] | Vmax (PnGGT ΔN24 [1]) [µmol/min/mg] | kcat (PnGGT ΔN24 [1]) [s⁻¹] | Km (PnGGT ΔN24 D405N [2]) [mM] | Vmax (PnGGT ΔN24 D405N [2]) [µmol/min/mg] | kcat (PnGGT ΔN24 D405N [2]) [s⁻¹] | hydrolysis of substrate (EcGGT ΔN24) | hydrolysis of substrate (EcGGT ΔN24 D433N) | hydrolysis of substrate (PnGGT ΔN24 [3]) | reactivity of PnGGT* to substrate (PnGGT ΔN24 D405N [4])
1 | CC(C)C[C@H](NC(=O)CCCS(=O)(=O)O)C(=O)O [sulfobutanoyl-L-leucine] | approximately three times higher | 1.55 | 27 | 46 | comparable to growth on other sulfonates; also recorded: comparable efficiencies | slower growth | grows best | weak growth | only grew when cells were synthesizing PnGGT* | – | – | – | – | – | – | – | – | – | –
2 | N[C@@H](CCC(=O)Nc1ccc([N+](=O)[O-])c(C(=O)O)c1)C(=O)O [γ-Glu-p-nitroanilide, L-glutamic acid γ-(3-carboxy-4-nitroanilide), reference compound] | – | – | – | – | – | – | – | – | – | 0.105 | 34.94 ± 0.47 | 34.5 | 6.5 | 1.79 ± 0.61 | 1.8 | able to hydrolyze | still had detectable activity | able to hydrolyze | no longer possesses significant reactivity
